The values that follow come from patent US20250304540A1, “2-METHYL-2-THIAZOLINE SALT” (Myrodia Therapeutics Co., Ltd., priority 2022, published 2025).

As a reminder, the solubility is the concentration that dissolves in the medium under given conditions.

Format in all cases: physicochemical
Data set [1] is described as follows: Solubility in phosphate buffered saline by visual observation. Particulars: aqueous buffer, thermodynamic from solid, phosphate buffered saline (PBS pH 7.2-7.4), room temperature. How it is done:
When 2-MT-NDSA salt (20 mg) was added to phosphate buffered saline (PBS pH 7.2-7.4, FUJIFILM Wako Pure Chemical Corporation 164-18541, 1 mL) at room temperature, the salt was dissolved easily. The 2-MT-NDSA salt was further added by […] to the solution. By visual observation to confirm dissolution, undissolved remainder was confirmed when the total amount reached 200 mg. Thus, the solubility under the present conditions was 100 mg/mL to 200 mg/mL.

The nature of data set [2]: Stability in the solid state at 40° C., checked by 1H NMR. The following applies: vial, heated to 40° C., left standing for three days. As to the method: 2-MT-NDSA salt was placed in a vial, heated to 40° C., and left standing for three days. […] Thus, it can be said that 2-MT·NDSA salt is stable in the solid state at 40° C. for 3 days (corresponding to 2 weeks at 25° C.).

The nature of data set [3]: Deliquescence by visual observation. Particulars: relative humidity of about 75%, 25° C., 23 hr. As to the method: A petri dish containing 2-MT-NDSA salt was placed in a relative humidity of about 75%, and left standing in a thermostatic tank at 25° C. for 23 hr.
Data set [4] can be described thus: Humidity stress test with XRPD analysis. Particulars: unsealed vial, 7 days. As to the method: XRPD analyses were performed using a Panalytical Empyrean diffractometer equipped with a Cu X-ray tube and a PIXcel 1D-Medipix3 detector system. The samples were analyzed at ambient temperature in transmission mode and held between low density PVC films. The XRPD program was used (range 3-40° […], step size 0.013°, counting time 99 sec, about 22 min run time/counting time 49 sec, about 11 min run time/counting time 22 sec, about 5 min run time). Samples were spun at 60 rpm during data collection. XRPD patterns were sorted and manipulated using HighScore Plus 2.2c/v4.9 software.
A given amount of salt was charged into a vial and placed unsealed in a thermostatic tank at 40° C./75% relative humidity or ambient temperature for 7 days and XRPD analysis was performed.

Structures can show the parent of a compound that is named as a salt.

Regarding `CC1=NCCS1` [2-MT-NDSA salt, monohydrate of a hemi-1,5-naphthalenedisulfonic acid salt of 2-methyl-2-thiazoline], the solubility in data set [1] fell in the range of 100 to 200 mg/mL. Besides, the “stability in the solid state (1H NMR before and after)” value in data set [2] is on record as “no change in the peaks was observed”. In data set [3], the deliquescence entry is given as “No deliquescence”. The “physical stability post storage (XRPD)” value in data set [4] (40° C./75% relative humidity) and in data set [4] (ambient temperature) was “physically stable” throughout.
